Results reported in patent US20220062199A1, “PH[…] ACTIVATOR COMPOUNDS, COMPOSITIONS, METHODS AND USES THEREOF” (SOCIETE DES PRODUITS NESTLE S.A., priority 2019, published 2022).

Key:
[1] = test system: phosphorylation of the AMPK substrate, acetyl-CoA carboxylase (ACC), in U2OS Flp-In T-REx mammalian cells; experiment: pACC HTRF assay: phosphorylation of the AMPK substrate ACC in U2OS Flp-In T-REx cells; type: cell-based; conditions: varying concentrations, 1 h, media lacking FBS, FIG. 2
Experimental: U2OS Flp-In T-REx cells were first seeded at 50 K in a 96-well plate and left overnight at 37 C in DMEM GlutaMAX (Thermo Fisher Scientific) supplemented with 10% (vol/vol) FBS and 100 U/ml penicillin G, and 100 μg/ml streptomycin. Cells were treated for 1 h with varying concentrations of Lusianthridin in media lacking FBS and then cells were lysed in 50 μl of Cisbio lysis buffer #1 supplemented with blocking solution as per the manufacturer's protocol (Cisbio). Cells were lysed for 30 mins at room temperature before 16 μl of lysate was incubated with 4 μl of the HTRF antibodies (1:40 dilution of the acceptor and donor (p)ACC antibodies, as per the manufacturers protocol). Lysates were incubated overnight with the antibodies before 665 nm/620 nm ratio was determined using a MolecularDevices i3 plate reader (with a HTRF cartridge add-on).

AMPKα2β1γ1 = target: T1, AMPKα2β1γ1 (Homo sapiens, UniProt P54619+P54646+Q9Y478); experiment: Activation of bacterially-expressed AMPKα2β1γ1 in vitro (HTRF-KinEASE Cisbio assay); type: biochemical; conditions: CaMKKβ-phosphorylated purified AMPK, varying concentrations, 30 mins, FIG. 1
T1 construct: His; made in house; host or cells: bacteria
Experimental: The AMPK heterotrimers were expressed in bacteria and purified through the His-α subunit by nickel purification before further purification through gel filtration. After being phosphorylated by incubation with CaMKKβ, AMPK complexes were further purified with a final gel filtration purification step. Phosphorylated purified AMPK was incubated with varying concentrations of Compound 1 or 2 for 30 mins using substrate and reagents from the HTRF-KinEASE Cisbio assay kit (STK S1 Kit). Phosphorylation of the substrate was measured by incubating with donor and acceptor antibodies for 2 h at room temperature as per the manufacturer's protocol (Coulerie et al., (2016) PMID: 27792327) and phosphorylated peptide detected by performing HTRF. The 665 nm/620 nm ratio was determined and plotted vs the log of the concentration of ligand.

T1 sequence (P54646 whole entry): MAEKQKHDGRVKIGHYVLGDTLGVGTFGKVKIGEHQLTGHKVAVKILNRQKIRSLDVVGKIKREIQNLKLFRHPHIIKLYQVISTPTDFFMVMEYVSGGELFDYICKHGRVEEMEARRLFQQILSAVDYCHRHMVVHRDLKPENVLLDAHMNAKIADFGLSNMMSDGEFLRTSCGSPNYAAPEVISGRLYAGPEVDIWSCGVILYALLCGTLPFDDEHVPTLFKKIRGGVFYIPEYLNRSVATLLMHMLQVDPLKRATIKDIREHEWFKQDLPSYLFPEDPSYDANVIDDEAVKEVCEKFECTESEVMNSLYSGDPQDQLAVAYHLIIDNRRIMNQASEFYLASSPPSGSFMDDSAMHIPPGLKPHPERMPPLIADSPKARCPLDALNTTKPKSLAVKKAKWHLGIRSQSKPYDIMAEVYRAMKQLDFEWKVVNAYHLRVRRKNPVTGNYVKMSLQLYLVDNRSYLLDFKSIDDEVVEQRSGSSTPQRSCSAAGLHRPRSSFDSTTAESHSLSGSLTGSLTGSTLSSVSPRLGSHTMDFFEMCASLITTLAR
T1 sequence (Q9Y478 whole entry): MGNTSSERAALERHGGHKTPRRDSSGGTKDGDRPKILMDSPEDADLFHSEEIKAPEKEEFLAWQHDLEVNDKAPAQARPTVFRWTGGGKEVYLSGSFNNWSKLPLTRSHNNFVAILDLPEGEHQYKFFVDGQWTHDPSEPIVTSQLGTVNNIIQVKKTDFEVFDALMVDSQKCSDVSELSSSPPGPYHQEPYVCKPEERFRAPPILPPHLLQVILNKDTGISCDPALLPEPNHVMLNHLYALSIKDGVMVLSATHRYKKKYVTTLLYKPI
T1 sequence (P54619 whole entry): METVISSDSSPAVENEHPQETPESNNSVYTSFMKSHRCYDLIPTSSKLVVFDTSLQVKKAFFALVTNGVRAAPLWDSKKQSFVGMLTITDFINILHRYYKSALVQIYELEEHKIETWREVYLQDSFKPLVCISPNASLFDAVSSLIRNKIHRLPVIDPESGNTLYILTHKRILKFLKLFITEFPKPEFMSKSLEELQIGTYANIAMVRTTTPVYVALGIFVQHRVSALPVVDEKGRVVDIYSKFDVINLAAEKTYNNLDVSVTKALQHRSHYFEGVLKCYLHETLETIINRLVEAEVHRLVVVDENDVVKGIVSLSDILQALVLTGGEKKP

SMILES	phosphorylation of the AMPK substrate ACC (665 nm/620 nm HTRF ratio) [1]	activation of AMPK complexes in vitro (substrate phosphorylation, 665 nm/620 nm HTRF ratio vs log concentration) (AMPKα2β1γ1)
COc1cc(O)c2c(ccc3cccc(O)c32)c1 [Compound 2, 2-Methoxyphenanthrene-4,5-diol]	increase the phosphorylation of the AMPK substrate, ACC, in a dose-dependent manner	directly activate AMPK complexes in vitro
COc1cc(O)c2c(ccc3cc(O)ccc32)c1 [Compound 1, 7-Methoxyphenanthrene-2,5-diol]	increase the phosphorylation of the AMPK substrate, ACC, in a dose-dependent manner	directly activate AMPK complexes in vitro
